From US20250032454A1, “KDM1A INHIBITORS FOR THE TREATMENT OF DISEASE” (Imago Biosciences, Inc., priority 2021, published 2025)

Target: LSD1 (Homo sapiens, UniProt O60341)
Experiment: LSD1 fluorescence coupling enzyme assay (HRP/Amplex Red, H3(1-21)K4me2 peptide), 10-dose IC50
Assay type: biochemical
Settings: 10 μM histone H3(1-21)K4me2 peptide substrate, 3-fold serial dilution from 100 μM
From the text: Assaying the inhibition of KDM1A can be determined in vitro, in cultured cells, and in animals. There are a variety of spectrophotometric methods to detect the results of demethylation of methylated lysines, viz., detecting the products of KDM1A demethylase oxidative activity on a peptide fragment of at least 18 amino acids representing the N-terminus of the histone H3 substrate that contains a monomethyl at the fourth lysine residue. Hydrogen peroxide, one product of the KDM1A demethylase reaction, reacts with horseradish peroxidase and dihydroxyphenoxazine (ADHP) to produce the fluorescent compound resorufin (excitation=530-560 nm: emission=590 nm). The KDM1A demethylase enzyme activity can be obtained from mammalian cells or tissues expressing KDM1A from an endogenous or recombinant gene and purified or assayed from a whole cell extract. These methods can be used to determine the concentration of the disclosed compounds can inhibit fifty percent of the enzyme activity (IC50).
Alternatively, the production of H2O2 during the KDM1A reaction can be detected fluometrically. In this system, the production of H2O2 is detected in the HDM assay buffer after exposure to substrate, co-factor and enzyme using ADHP (10-Acetyl-3, 7-dihydroxyphenoxazine) as a fluorogenic substrate for horse radish peroxidase (HRP). […] The florescent product is resorufin. Sensitivity can be as low as 10-15 M of target protein. The signal is read using a fluorescence microplate reader at excitation and emission wavelengths of 530-560 nm and 590 nm, respectively.
Compounds were tested in a 10-dose IC50 mode fluorescence coupling enzyme assay with 3-fold serial dilution in duplicate starting at 100 μM. The production of FAD-dependent H2O2 as a result of demethylase activity of LSD1 on 10 μM histone H3(1-21)K4me2 peptide substrate was measured by coupling with HRP and Amplex Red to yield resorufin (fluorescence measured at Ex/Em=535/590 nm on EnVision, Perkin Elmer).

SMILES | IC50 [nM]
N#Cc1ccc(-c2cc(NC[C@H]3CCC[C@H](N)C3)nn2-c2ccc(N3CCSCC3)cc2)cc1F [Example 99, 4-(3-((((1S,3S)-3-aminocyclohexyl)methyl)amino)-1-(4-thiomorpholinophenyl)-1H-pyrazol-5-yl)-2-fluorobenzonitrile] | < 500
CC1(O)CCN(c2ccc(-n3nc(NC[C@H]4CCC[C@H](N)C4)cc3-c3ccc(C#N)c(F)c3)cc2)CC1 [Example 101, 4-(3-((((1S,3S)-3-aminocyclohexyl)methyl)amino)-1-(4-(4-hydroxy-4-methylpiperidin-1-yl)phenyl)-1H-pyrazol-5-yl)-2-fluorobenzonitrile 2,2,2-trifluoroacetate] | < 500
COC1(C)CCN(c2ccc(-n3nc(NC[C@H]4CCC[C@H](N)C4)cc3-c3ccc(C#N)c(F)c3)cc2)CC1 [Example 102, 4-(3-((((1S,3S)-3-aminocyclohexyl)methyl)amino)-1-(4-(4-methoxy-4-methylpiperidin-1-yl)phenyl)-1H-pyrazol-5-yl)-2-fluorobenzonitrile 2,2,2-trifluoroacetate] | < 500
N#Cc1ccc(-c2cc(NC[C@H]3CCC[C@H](N)C3)nn2-c2ccc(N3CCNC(=O)C3)cc2)cc1F [Example 104, 4-(3-((((1S,3S)-3-aminocyclohexyl)methyl)amino)-1-(4-(3-oxopiperazin-1-yl)phenyl)-1H-pyrazol-5-yl)-2-fluorobenzonitrile] | < 500
N#Cc1ccc(-c2cc(NCC3CCCNCC3)nn2-c2ccc(N3CCS(=O)(=O)CC3)cc2F)cc1F (stereo not drawn) [Example 107, 4-(3-((azepan-4-ylmethyl)amino)-1-(4-(1,1-dioxidothiomorpholino)-2-fluorophenyl)-1H-pyrazol-5-yl)-2-fluorobenzonitrile] | < 500
N#Cc1ccc(-c2cc(NCC3CNCCO3)nn2-c2ccc(N3CCS(=O)(=O)CC3)cc2F)cc1F (stereo not drawn) [Example 108, 4-(1-(4-(1,1-dioxidothiomorpholino)-2-fluorophenyl)-3-((morpholin-2-ylmethyl)amino)-1H-pyrazol-5-yl)-2-fluorobenzonitrile 2,2,2-trifluoroacetate] | < 500
CN1CCN(c2ccc(-n3nc(NC[C@H]4CCC[C@H](N)C4)cc3-c3ccc(C#N)c(F)c3)c(F)c2)CC1=O [Example 109, 4-(3-((((1S,3S)-3-aminocyclohexyl)methyl)amino)-1-(2-fluoro-4-(4-methyl-3-oxopiperazin-1-yl)phenyl)-1H-pyrazol-5-yl)-2-fluorobenzonitrile] | < 500
N#Cc1ccc(-c2cc(NCC3CCCNCC3)nn2-c2ccc(N3CCS(=O)(=O)CC3)c(F)c2)cc1F (stereo not drawn) [Example 110, 4-(3-((azepan-4-ylmethyl)amino)-1-(4-(1,1-dioxidothiomorpholino)-3-fluorophenyl)-1H-pyrazol-5-yl)-2-fluorobenzonitrile 2,2,2-trifluoroacetate] | < 500
COc1cc(N2CCS(=O)(=O)CC2)ccc1-n1nc(NC[C@H]2CCCNCC2)cc1-c1ccc(C#N)c(F)c1 [Example 112, (S)-4-(3-((azepan-4-ylmethyl)amino)-1-(4-(1,1-dioxidothiomorpholino)-2-methoxyphenyl)-1H-pyrazol-5-yl)-2-fluorobenzonitrile 2,2,2-trifluoroacetate] | < 500
COc1cc(N2CCC(OC)CC2)ccc1-n1nc(NC[C@H]2CCC[C@H](N)C2)cc1-c1ccc(C#N)c(F)c1 [Example 114, 4-(3-((((1S,3S)-3-aminocyclohexyl)methyl)amino)-1-(2-methoxy-4-(4-methoxypiperidin-1-yl)phenyl)-1H-pyrazol-5-yl)-2-fluorobenzonitrile 2,2,2-trifluoroacetate] | < 500
CC1(O)CCN(c2ccc(-n3nc(NC[C@H]4CCC[C@H](N)C4)cc3-c3ccc(C#N)c(F)c3)c(F)c2)CC1 [Example 116, 4-(3-((((1S,3S)-3-aminocyclohexyl)methyl)amino)-1-(2-fluoro-4-(4-hydroxy-4-methylpiperidin-1-yl)phenyl)-1H-pyrazol-5-yl)-2-fluorobenzonitrile 2,2,2-trifluoroacetate] | < 500
N#Cc1ccc(-c2cc(NC[C@H]3CCC[C@H](N)C3)nn2-c2ccc3c(c2)NCCO3)cc1F [Example 119, 4-(3-((((1S,3S)-3-aminocyclohexyl)methyl)amino)-1-(3,4-dihydro-2H-benzo[b][1,4]oxazin-6-yl)-1H-pyrazol-5-yl)-2-fluorobenzonitrile 2,2,2-trifluoroacetate] | < 500

Continued, values first:

IC50 [nM] | SMILES
< 500 | N#Cc1ccc(-c2cc(NC[C@H]3CCC[C@H](N)C3)nn2-c2ccc(N3CCOCC3)cc2)cc1F [Example 96, 4-(3-((((1S,3S)-3-aminocyclohexyl)methyl)amino)-1-(4-morpholinophenyl)-1H-pyrazol-5-yl)-2-fluorobenzonitrile 2,2,2-trifluoroacetate]
< 500 | CCOC1CCN(c2ccc(-n3nc(NC[C@H]4CCC[C@H](N)C4)cc3-c3ccc(C#N)c(F)c3)cc2)CC1 [Example 97, 4-(3-((((1S,3S)-3-aminocyclohexyl)methyl)amino)-1-(4-(4-ethoxypiperidin-1-yl)phenyl)-1H-pyrazol-5-yl)-2-fluorobenzonitrile 2,2,2-trifluoroacetate]
< 500 | CO[C@H]1CCCN(c2ccc(-n3nc(NC[C@H]4CCC[C@H](N)C4)cc3-c3ccc(C#N)c(F)c3)cc2)C1 [Example 98, 4-(3-((((1S,3S)-3-aminocyclohexyl)methyl)amino)-1-(4-((S)-3-methoxypiperidin-1-yl)phenyl)-1H-pyrazol-5-yl)-2-fluorobenzonitrile 2,2,2-trifluoroacetate]
< 500 | N#Cc1ccc(-c2cc(NC[C@@H]3CCC[C@@H](N)C3)nn2-c2ccc(N3CCSCC3)cc2)cc1F [Example 100, 4-(3-((((1R,3R)-3-aminocyclohexyl)methyl)amino)-1-(4-thiomorpholinophenyl)-1H-pyrazol-5-yl)-2-fluorobenzonitrile]
< 500 | N#Cc1ccc(-c2cc(NC[C@H]3CCC[C@H](N)C3)nn2-c2ccc(N3CCC(C#N)CC3)cc2)cc1F [Example 103, 1-(4-(3-((((1S,3S)-3-aminocyclohexyl)methyl)amino)-5-(4-cyano-3-fluorophenyl)-1H-pyrazol-1-yl)phenyl)piperidine-4-carbonitrile 2,2,2-trifluoroacetate]
1000 to 10000 | CN1CCN(c2ccc(-n3nc(NC[C@H]4CCC[C@H](N)C4)cc3-c3ccc(C#N)c(F)c3)cc2)CC1=O [Example 105, 4-(3-((((1S,3S)-3-aminocyclohexyl)methyl)amino)-1-(4-(4-methyl-3-oxopiperazin-1-yl)phenyl)-1H-pyrazol-5-yl)-2-fluorobenzonitrile]
< 500 | N#Cc1ccc(-c2cc(NC[C@@H]3CCCNCC3)nn2-c2ccc(N3CCS(=O)(=O)CC3)cc2F)cc1F [Example 106, (R)-4-(3-((azepan-4-ylmethyl)amino)-1-(4-(1,1-dioxidothiomorpholino)-2-fluorophenyl)-1H-pyrazol-5-yl)-2-fluorobenzonitrile]
< 500 | N#Cc1ccc(-c2cc(NC[C@@H]3CCCNCC3)nn2-c2ccc(N3CCS(=O)(=O)CC3)c(F)c2)cc1F [Example 111, (R)-4-(3-((azepan-4-ylmethyl)amino)-1-(4-(1,1-dioxidothiomorpholino)-3-fluorophenyl)-1H-pyrazol-5-yl)-2-fluorobenzonitrile 2,2,2-trifluoroacetate]
< 500 | COc1cc(N2CCS(=O)(=O)CC2)ccc1-n1nc(NC[C@@H]2CCCNCC2)cc1-c1ccc(C#N)c(F)c1 [Example 113, (R)-4-(3-((azepan-4-ylmethyl)amino)-1-(4-(1,1-dioxidothiomorpholino)-2-methoxyphenyl)-1H-pyrazol-5-yl)-2-fluorobenzonitrile 2,2,2-trifluoroacetate]
1000 to 10000 | COc1cc(N2CCC(C)(O)CC2)ccc1-n1nc(NC[C@H]2CCC[C@H](N)C2)cc1-c1ccc(C#N)c(F)c1 [Example 115, 4-(3-((((1S,3S)-3-aminocyclohexyl)methyl)amino)-1-(4-(4-hydroxy-4-methylpiperidin-1-yl)-2-methoxyphenyl)-1H-pyrazol-5-yl)-2-fluorobenzonitrile 2,2,2-trifluoroacetate]
< 500 | COc1cc(N2CCN(C)C(=O)C2)ccc1-n1nc(NC[C@H]2CCC[C@H](N)C2)cc1-c1ccc(C#N)c(F)c1 [Example 117, 4-(3-((((1S,3S)-3-aminocyclohexyl)methyl)amino)-1-(2-methoxy-4-(4-methyl-3-oxopiperazin-1-yl)phenyl)-1H-pyrazol-5-yl)-2-fluorobenzonitrile]
1000 to 10000 | COC1CCN(c2cccc(-n3nc(NC[C@H]4CCC[C@H](N)C4)cc3-c3ccc(C#N)c(F)c3)c2)CC1 [Example 118, 4-(3-((((1S,3S)-3-aminocyclohexyl)methyl)amino)-1-(3-(4-methoxypiperidin-1-yl)phenyl)-1H-pyrazol-5-yl)-2-fluorobenzonitrile 2,2,2-trifluoroacetate]
